# According to patent publication US20200000822A1, “METHODS OF TREATMENT FOR CANCER, STEROL HOMEOSTASIS, AND NEUROLOGICAL DISEASES” (BOARD OF REGENTS, THE UNIVERSITY OF TEXAS SYSTEM, priority 2017, published 2020):
# Entries after “also recorded” stand apart in the source; their conditions may differ.
# What was measured:
# human TMEM97 = molecular target: T1, human TMEM97 (Homo sapiens, UniProt Q5BJF2); assay: ^3H DTG competition binding in Sf9 insect membranes overexpressing TMEM97; conditions: competition with 30 nM ^3H DTG
# T1 construct: made in house; host or cells: Sf9 insect cells (baculovirus, pVL1392, BestBac)
# Protocol: For insect cell expression, human TMEM97 was cloned into the vector pVL1392, and baculovirus was prepared using the BestBac system (Expression Systems) in accordance with manufacturer's instructions. For large scale production, Sf9 insect cells were infected at a density of 4×10^6 cells/mL and then shaken at 27° C. for 60 hours prior to harvest.
# (§1) Membranes were prepared from PC-12, MCF-7, Sf9, or Expi293 cells. In brief, adherent cells were washed with ice cold PBS or HBS and harvested with a cell scraper, while suspension cells were simply pelleted. Cell pellets were suspended in 20 mM HEPES pH 7.5, 2 mM magnesium chloride, and 1:100,000 (v:v) benzonase nuclease (Sigma Aldrich) and supplemented with cOmplete Mini, EDTA-free Protease Inhibitor Cocktail Tablets (Roche). Following dounce homogenization, the cells were centrifuged at 50,000×g for 20 minutes. The supernatant was discarded and the membranes were washed one more time with cold 50 mM Tris pH 8.0 containing cOmplete Mini, EDTA-free Protease Inhibitor Cocktail Tablets (Roche, 1 tablet per 50 mL buffer). The membranes were centrifuged once more at 50,000× for 20 minutes, and then resuspended in a variable volume of cold 50 mM Tris pH 8.0 with the same protease inhibitor cocktail. Protein content was assessed by DC protein assay (Bio-Rad) according to manufacturer's instructions. Membranes were aliquoted, flash frozen, and stored at −80° C. until use in the radioligand binding experiments described below.
# 1.8 μM (+)SKF-10,047 was included to block 1l receptor sites in all MCF-7 membranes binding assays and in Sf9 membranes when testing TMEM97 ligands. Reactions were incubated for 90 minutes at 37° C., and were then terminated by filtration through a glass fiber filter using a Brandel cell harvester. Glass fiber filters were soaked in 0.3% polyethylenimine for at least 30 minutes at room temperature prior to harvesting. All reactions were performed in triplicate using a 96-well block. After the membranes were transferred to the filters and washed, the filters were soaked in 5 mL Cytoscint scintillation fluid overnight and radioactivity was measured using a Beckman Coulter LS 6500 scintillation counter. Data were analyzed using software from Graphpad Prism. Ki values were computed directly without the use of the Cheng-Prusoff correction using the Graphpad Prism software.
# sigma-2 receptor [1] = molecular target: sigma-2 receptor (Homo sapiens, UniProt Q5BJF2); assay: ^3H DTG competition binding in MCF-7 cell membranes; conditions: competition with 30 nM ^3H DTG
# Protocol: as §1, with “The membranes were centrifuged once more at 50,000× for 20 minutes, and then resuspended in a variable volume of cold 50 mM Tris pH 8.0 with the same protease inhibitor cocktail.” left out, “Membranes were aliquoted, flash frozen, and stored at −80° C. until use in the radioligand binding experiments described below.” left out
# 1.8 μM (+)SKF-10,047 was included to block 1l receptor sites in all MCF-7 membranes binding assays and in Sf9 membranes when testing TMEM97 ligands. […] After the membranes were transferred to the filters and washed, the filters were soaked in 5 mL Cytoscint scintillation fluid overnight and radioactivity was measured using a Beckman Coulter LS 6500 scintillation counter. Data were analyzed using software from Graphpad Prism. […]
# PGRMC1 = molecular target: T2, PGRMC1 (Homo sapiens, UniProt O00264); assay: single-point ^3H DTG binding, HEK293 cells overexpressing PGRMC1; conditions: 10 nM ^3H DTG
# T2 construct: mCardinal (behind the 2A skip peptide, reporter of transfection) (C, cleaved yes); expressed in transfected cells
# Protocol: Eight selected hits from LC-MS/MS were cloned into a pTARGET vector (Promega), followed by a porcine teschovirus-1 2A skip peptide ([…] (SEQ ID NO: 3)) and by the fluorescent protein mCardinal40 to assess transfection efficiency. Plasmids were transfected into Expi293 cells (Thermo Fisher) according to manufacturer's instructions. After 36 hours, expression of each target protein was confirmed by flow cytometry analysis of mCardinal fluorescence levels. Receptor point mutants were generated by site-directed mutagenesis using KAPA polymerase (KAPA Biosystems), and resulting constructs were expressed in Expi293 cells as described above.
# Membranes were prepared from PC-12, MCF-7, Sf9, or Expi293 cells. In brief, adherent cells were washed with ice cold PBS or HBS and harvested with a cell scraper, while suspension cells were simply pelleted. Cell pellets were suspended in 20 mM HEPES pH 7.5, 2 mM magnesium chloride, and 1:100,000 (v:v) benzonase nuclease (Sigma Aldrich) and supplemented with cOmplete Mini, EDTA-free Protease Inhibitor Cocktail Tablets (Roche). […] Protein content was assessed by DC protein assay (Bio-Rad) according to manufacturer's instructions. […]
# Membrane radioligand binding assays were performed as described 41 with slight modifications. […] Radioactivity was measured by liquid scintillation counting.
# Tmem97 mRNA = assay: siRNA knockdown of Tmem97 in PC-12 cells, qPCR of mRNA; assay type: cell-based, Rattus norvegicus; conditions: 10 nM siRNA
# Protocol: A pair of siRNA oligos were designed against Rattus norvegicus Tmem97 mRNA using the Stealth RNAi™ tool available through ThermoFisher Scientific. The sense strand for the siRNA was 5′-[…]-3′ (SEQ ID NO: 4), and the antisense strand was 5′-[…]-3′ (SEQ ID NO: 5). As a control, we used the AllStars Negative Control siRNA™ from Qiagen. For the transfection, 2.2×10^6 PC-12 cells suspended in 8.0 mL of DMEM with 10% FBS and 10 μg/mL of gentamicin were placed in a 10 cm dish and immediately transfected with a 2.0 mL solution containing 20 μL of Lipofectamine® RNAimax from ThermoFisher Scientific and 10 nM of either the control or Tmem97 siRNA. After 24 hours, the media was changed for fresh media, and the cells were transfected again in the same way. 48 hours after the first transfection, the cells were trypsinized and split 1:2 into two new 10 cm plates. On the 5th day after the first transfection, cells were harvested by trypsinization and centrifugation, and 10% were set aside for RNA extraction while 90% were used for binding analysis. […]
# After preparation of the cDNA was complete, real-time quantitative PCR (qPCR) was performed on a QuantStudio 6 qPCR instrument at the Harvard Medical School Center for Molecular Interactions using PowerUp™ SYBR® Green Master Mix from Applied Biosystems Life Technologies. […] Fold differences in Tmem97 expression levels were calculated using the ΔΔCT method 43. […]
# sigma-2 receptor [2] = molecular target: T3, sigma-2 receptor (Rattus norvegicus, UniProt Q5U3Y7); assay: siRNA knockdown of Tmem97 in PC-12 cells, sigma-2 expression by saturating ^3H DTG binding; assay type: cell-based; conditions: compared with mRNA reduction
# T3 construct: endogenous in cells; host or cells: PC-12 cells
# T3 sequence (Q5U3Y7 1-176): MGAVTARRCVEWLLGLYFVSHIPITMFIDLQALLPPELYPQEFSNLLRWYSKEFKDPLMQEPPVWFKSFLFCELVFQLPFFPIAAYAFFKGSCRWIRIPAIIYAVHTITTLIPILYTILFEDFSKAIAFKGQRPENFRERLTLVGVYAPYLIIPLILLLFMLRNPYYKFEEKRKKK
# Protocol: as §1, with “Cell pellets were suspended in 20 mM HEPES pH 7.5, 2 mM magnesium chloride, and 1:100,000 (v:v) benzonase nuclease (Sigma Aldrich) and supplemented with cOmplete Mini, EDTA-free Protease Inhibitor Cocktail Tablets (Roche).” left out, “-80°” for “−80°”, “below. Membrane radioligand binding assays were performed as described 41 with slight modifications. […] Samples were incubated at room temperature with shaking for 1.5 hours, at which time the reaction was terminated by the addition of ice-cold water. Samples were then applied to glass fiber filters (Merck Millipore) that had been pre-treated with 0.3% (v/v) polyethylenimine. […] Radioactivity was measured by liquid scintillation counting. […]” for “below.”
# T1 sequence (Q5BJF2 whole entry): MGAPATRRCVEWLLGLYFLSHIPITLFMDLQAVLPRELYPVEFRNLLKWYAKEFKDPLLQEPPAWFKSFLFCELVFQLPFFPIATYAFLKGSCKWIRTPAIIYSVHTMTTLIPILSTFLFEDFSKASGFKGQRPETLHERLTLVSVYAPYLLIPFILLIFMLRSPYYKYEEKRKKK
# Chain of sigma-2 receptor (Homo sapiens, UniProt Q5BJF2) (Q5BJF2 whole entry, species assumed): as the sequence (Q5BJF2 whole entry) above
# T2 sequence (O00264 whole entry, species assumed): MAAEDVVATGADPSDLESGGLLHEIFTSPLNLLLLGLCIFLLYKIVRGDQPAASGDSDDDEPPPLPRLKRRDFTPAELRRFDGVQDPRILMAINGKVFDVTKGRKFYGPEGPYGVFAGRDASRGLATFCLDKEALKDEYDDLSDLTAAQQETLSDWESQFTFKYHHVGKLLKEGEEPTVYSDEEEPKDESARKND
Compound,affinity of the ligand for TMEM97 compared with previously reported affinities (human TMEM97),also measured
"CC(C)=CCN1CCC2(C)c3cc(O)ccc3CC1C2C (single isomer, unassigned; (+)) [(+)-pentazocine]",essentially identical to previously report sigma-2 receptor binding affinities; also recorded: essentially identical to previously reported affinities,
COc1cc2c(cc1OC)CN(CCc1ccc(NC(=O)c3cccc4c(=O)c5cccc(OC)c5[nH]c34)cc1)CC2 [Elacridar],essentially identical to previously reported affinities,binding affinity in MCF-7 cell membranes compared with Sf9 membranes overexpressing TMEM97 (sigma-2 receptor [1]): identical in both
COc1cccc2c1CCCC2CCCN1CCN(C2CCCCC2)CC1 (centres unmarked) [PB-28],essentially identical to previously report sigma-2 receptor binding affinities; also recorded: essentially identical to previously reported affinities,
"C=CCN(C)CCCCCCOc1ccc(C(=O)c2ccc(Br)cc2)c(F)c1 [Ro 48-8071, (4-Bromophenyl)-[2-fluoro-4-[6-[methyl(prop-2-enyl)amino]hexoxy]phenyl]methanone]",essentially identical to previously reported affinities,binding affinity in MCF-7 cell membranes compared with Sf9 membranes overexpressing TMEM97 (sigma-2 receptor [1]): identical in both
"Cc1ccccc1NC(=N)Nc1ccccc1C [^3H DTG, ^3H 1,3-di-o-tolylguanidine]",,^3H DTG binding (PGRMC1): did not lead to increased
O=C(CCCN1CCC(O)(c2ccc(Cl)cc2)CC1)c1ccc(F)cc1 [haloperidol],essentially identical to previously report sigma-2 receptor binding affinities; also recorded: essentially identical to previously reported affinities,
"(+)-SKF-10,047",essentially identical to previously report sigma-2 receptor binding affinities; also recorded: essentially identical to previously reported affinities,
siRNA: siRNA against Rattus norvegicus Tmem97 mRNA; sense strand 5′-CAACCUGUUGCGGUGGUACUCUAAG-3′ (SEQ ID NO: 4) (antisense CUUAGAGUACCACCGCAACAGGUUG; chemistry not given here),,reduction of Tmem97 mRNA expression (Tmem97 mRNA): ~60%; reduction in sigma-2 expression levels by saturating ^3H DTG binding (sigma-2 receptor [2]): near identical reduction
